The values below come from ChEMBL document CHEMBL4665756, “Synthesis, crystal structure and biological activity of novel analogues of tricyclic drugs” (Bioorg Med Chem Lett, 2020).

Experiment [1] has as its target Sodium-dependent serotonin transporter (Homo sapiens, UniProt P31645). As to the kind of experiment: Binding affinity to SERT (unknown origin).
The next experiment has as its target Histamine H1 receptor (Homo sapiens, UniProt P35367). The experiment in a line: Binding affinity to H1 receptor (unknown origin).
Experiment [2] has as its target T1, 5-hydroxytryptamine receptor 1A (Homo sapiens, UniProt P08908).
T1 sequence (P08908 whole entry): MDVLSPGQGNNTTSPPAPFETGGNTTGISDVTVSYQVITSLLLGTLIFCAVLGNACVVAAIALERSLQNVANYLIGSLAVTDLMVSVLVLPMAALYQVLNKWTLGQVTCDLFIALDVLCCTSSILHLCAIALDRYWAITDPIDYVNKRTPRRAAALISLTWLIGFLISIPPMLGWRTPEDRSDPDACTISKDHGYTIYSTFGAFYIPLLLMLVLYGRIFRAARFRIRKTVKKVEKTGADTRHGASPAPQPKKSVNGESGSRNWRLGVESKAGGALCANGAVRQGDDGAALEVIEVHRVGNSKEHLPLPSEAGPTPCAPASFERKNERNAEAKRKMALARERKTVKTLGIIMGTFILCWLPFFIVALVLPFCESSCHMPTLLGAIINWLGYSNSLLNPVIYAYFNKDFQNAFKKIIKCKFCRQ
As to the kind of experiment: Binding affinity to 5HT1A receptor (unknown origin).

For experiment [3], the target named is 5-hydroxytryptamine receptor 7 (Homo sapiens, UniProt P34969). The experiment in a line: Binding affinity to 5HT7 receptor (unknown origin).
Chain of 5-hydroxytryptamine receptor 7 (P34969 whole entry): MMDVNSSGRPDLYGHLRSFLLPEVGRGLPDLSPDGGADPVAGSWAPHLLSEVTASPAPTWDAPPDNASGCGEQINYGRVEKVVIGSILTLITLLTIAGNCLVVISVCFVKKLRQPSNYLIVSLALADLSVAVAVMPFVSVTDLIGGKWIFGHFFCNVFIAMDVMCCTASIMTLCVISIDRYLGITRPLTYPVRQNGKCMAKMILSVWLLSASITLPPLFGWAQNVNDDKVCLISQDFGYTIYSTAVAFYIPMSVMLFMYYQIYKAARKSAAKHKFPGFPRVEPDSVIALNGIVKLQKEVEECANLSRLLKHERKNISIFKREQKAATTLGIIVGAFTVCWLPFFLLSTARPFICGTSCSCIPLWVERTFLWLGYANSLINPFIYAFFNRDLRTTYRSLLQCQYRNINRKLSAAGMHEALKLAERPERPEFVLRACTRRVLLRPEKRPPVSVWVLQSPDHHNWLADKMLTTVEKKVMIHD
The target in experiment [4] is 5-hydroxytryptamine receptor 6 (Homo sapiens, UniProt P50406). As to the kind of experiment: Binding affinity to 5HT6 receptor (unknown origin).
Chain of 5-hydroxytryptamine receptor 6 (P50406 whole entry): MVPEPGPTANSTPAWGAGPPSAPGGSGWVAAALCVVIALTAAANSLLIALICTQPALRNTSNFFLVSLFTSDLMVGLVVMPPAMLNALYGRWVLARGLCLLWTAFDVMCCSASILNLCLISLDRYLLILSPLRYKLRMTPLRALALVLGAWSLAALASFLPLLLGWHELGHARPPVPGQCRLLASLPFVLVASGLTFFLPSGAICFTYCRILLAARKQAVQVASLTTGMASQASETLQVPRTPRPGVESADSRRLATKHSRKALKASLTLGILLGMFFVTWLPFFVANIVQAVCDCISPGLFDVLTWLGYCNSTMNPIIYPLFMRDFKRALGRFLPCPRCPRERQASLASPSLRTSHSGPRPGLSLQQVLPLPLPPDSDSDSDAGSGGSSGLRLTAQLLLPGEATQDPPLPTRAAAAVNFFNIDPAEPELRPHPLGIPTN
The target in experiment [5] is 5-hydroxytryptamine receptor 2A (Homo sapiens, UniProt P28223). The experiment in a line: Binding affinity to 5HT2A receptor (unknown origin).
Chain of 5-hydroxytryptamine receptor 2A (P28223 whole entry): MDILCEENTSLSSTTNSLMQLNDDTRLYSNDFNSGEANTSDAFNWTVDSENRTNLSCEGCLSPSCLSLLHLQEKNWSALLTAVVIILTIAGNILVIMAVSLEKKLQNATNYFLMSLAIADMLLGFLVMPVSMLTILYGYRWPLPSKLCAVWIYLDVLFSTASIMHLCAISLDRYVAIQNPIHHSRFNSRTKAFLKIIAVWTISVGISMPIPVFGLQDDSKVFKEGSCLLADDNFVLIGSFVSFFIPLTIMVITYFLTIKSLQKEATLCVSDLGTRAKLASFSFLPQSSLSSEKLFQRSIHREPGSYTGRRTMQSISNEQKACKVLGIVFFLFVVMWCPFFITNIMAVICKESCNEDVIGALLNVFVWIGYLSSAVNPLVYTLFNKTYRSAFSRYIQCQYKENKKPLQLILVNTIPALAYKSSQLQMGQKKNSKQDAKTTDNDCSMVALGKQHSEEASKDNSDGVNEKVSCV
The target in a further experiment is D(2) dopamine receptor (Homo sapiens, UniProt P14416). As to the kind of experiment: Binding affinity to D2 receptor (unknown origin).
Chain of D(2) dopamine receptor (P14416 whole entry): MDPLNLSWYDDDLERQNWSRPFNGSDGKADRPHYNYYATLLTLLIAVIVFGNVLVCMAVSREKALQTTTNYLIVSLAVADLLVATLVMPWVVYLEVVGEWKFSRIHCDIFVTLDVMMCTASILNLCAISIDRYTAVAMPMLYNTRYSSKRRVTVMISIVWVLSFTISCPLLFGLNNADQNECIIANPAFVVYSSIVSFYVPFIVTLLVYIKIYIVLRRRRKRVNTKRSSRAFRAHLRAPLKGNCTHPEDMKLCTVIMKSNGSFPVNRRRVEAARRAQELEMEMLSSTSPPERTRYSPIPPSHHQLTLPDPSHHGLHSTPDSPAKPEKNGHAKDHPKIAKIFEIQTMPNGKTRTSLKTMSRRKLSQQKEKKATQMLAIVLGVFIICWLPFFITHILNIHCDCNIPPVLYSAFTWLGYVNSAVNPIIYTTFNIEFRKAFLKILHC

Chain of Sodium-dependent serotonin transporter (P31645 whole entry): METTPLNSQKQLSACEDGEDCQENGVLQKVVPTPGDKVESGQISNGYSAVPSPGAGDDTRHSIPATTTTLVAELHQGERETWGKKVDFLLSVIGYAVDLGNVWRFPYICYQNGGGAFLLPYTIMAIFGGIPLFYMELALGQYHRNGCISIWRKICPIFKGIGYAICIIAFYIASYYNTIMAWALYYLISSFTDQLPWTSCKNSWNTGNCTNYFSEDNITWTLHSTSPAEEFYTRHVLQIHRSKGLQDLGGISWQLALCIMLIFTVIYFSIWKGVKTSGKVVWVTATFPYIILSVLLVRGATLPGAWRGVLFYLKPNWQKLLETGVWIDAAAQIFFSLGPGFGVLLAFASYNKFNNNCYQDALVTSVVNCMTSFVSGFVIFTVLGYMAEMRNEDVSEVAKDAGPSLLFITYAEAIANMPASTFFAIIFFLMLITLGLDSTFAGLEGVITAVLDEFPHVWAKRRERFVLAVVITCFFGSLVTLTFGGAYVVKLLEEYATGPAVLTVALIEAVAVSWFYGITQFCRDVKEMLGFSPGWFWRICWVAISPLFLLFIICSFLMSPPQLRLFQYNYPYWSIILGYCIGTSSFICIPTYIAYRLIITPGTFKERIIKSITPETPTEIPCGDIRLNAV
Chain of Histamine H1 receptor (P35367 whole entry): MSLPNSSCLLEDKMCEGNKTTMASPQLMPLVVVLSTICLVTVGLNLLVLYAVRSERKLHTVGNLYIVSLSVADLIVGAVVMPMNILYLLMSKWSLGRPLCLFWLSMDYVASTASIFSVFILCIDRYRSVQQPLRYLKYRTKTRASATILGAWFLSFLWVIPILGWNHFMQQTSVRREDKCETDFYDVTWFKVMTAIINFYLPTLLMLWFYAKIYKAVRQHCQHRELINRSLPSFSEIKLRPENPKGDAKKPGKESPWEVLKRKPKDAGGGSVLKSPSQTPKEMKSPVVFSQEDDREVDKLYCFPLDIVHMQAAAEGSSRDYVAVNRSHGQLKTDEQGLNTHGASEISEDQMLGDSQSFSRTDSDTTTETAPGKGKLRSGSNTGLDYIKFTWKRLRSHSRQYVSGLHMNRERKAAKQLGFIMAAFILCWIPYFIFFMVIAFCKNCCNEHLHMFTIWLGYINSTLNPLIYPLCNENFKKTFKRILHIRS

By Ki is commonly meant the equilibrium dissociation constant of an inhibitor or competing ligand from its target. For the molecule `COc1cc2c(cc1OC)N(CCN(C)C)C(=O)c1ccccc1N(C)C2=O`, the Ki in experiment [1] (read-out: Ki) is over 100 µM; at Histamine H1 receptor (read-out: Ki) it was over 10 µM.

As to `CN(C)CCN1C(=O)c2ccccc2N(C)c2ccccc21` [DIBENZEPIN], the Ki in experiment [1] (read-out: Ki) is 10.9 µM; at Histamine H1 receptor (read-out: Ki), 0.02 µM; in experiment [2], 2.5 µM; in experiment [3], 12.3 µM; in experiment [4], 3.3 µM; in experiment [5], 7.2 µM. At D(2) dopamine receptor, this molecule registered a Ki of 30.2 µM.

Turning to `O=C1c2ccccc2/C=C\c2ccccc2N1CCCN1CCOCC1`, the Ki in experiment [1] (read-out: Ki) is over 100 µM; on Histamine H1 receptor, “Not Active”; in experiment [2], 39.4 µM; in experiment [3], over 100 µM; in experiment [4], 75.3 µM; in experiment [5] it was over 100 µM. On D(2) dopamine receptor, this molecule came in with a Ki of 19.1 µM.

In the case of `CN(C)CCN1C(=O)c2cc(Cl)ccc2N(C)C(=O)c2cc3ccccc3cc21`, the Ki result in experiment [1] was “Not Active”; at Histamine H1 receptor (read-out: Ki), over 5 µM.

Turning to `CN1CCN(CCCN2C(=O)c3ccccc3/C=C\c3ccccc32)CC1`, the inhibition constant Ki entry is “Not Active” in experiment [1]; over 5 µM at Histamine H1 receptor (read-out: Ki); 87.7 µM in experiment [2]; over 100 µM in experiment [3]; 21.1 µM in experiment [4]; 48.3 µM in experiment [5]. The molecule further came in with a Ki at D(2) dopamine receptor of 7.5 µM.

`CN(C)CCCN1C(=O)c2ccccc2CCc2ccccc21`: the Ki in experiment [1] (read-out: Ki) was over 100 µM; at Histamine H1 receptor (read-out: Ki), 0.81 µM.

As to `CN(C)CCN1C(=O)c2ccccc2C(=O)N(Cc2ccccc2)c2ccccc21`, the Ki result (in experiment [1]; on Histamine H1 receptor) was “Not Active” in each case.

Consider `CN(C)CCN1C(=O)c2ccccc2/C=C\c2ccccc21`, for which the inhibition constant (Ki) in experiment [1] (read-out: Ki) turned out to be 4.6 µM; on Histamine H1 receptor (read-out: Ki), 0.12 µM; in experiment [2] it was 77.2 µM; in experiment [3], 85.2 µM; in experiment [4] it was 20.1 µM; in experiment [5] it was 74.4 µM. Besides, the inhibition constant Ki on D(2) dopamine receptor came out at 11.6 µM.

Turning to `CN(C)CCCN1C(=O)c2ccccc2N(C)C(=O)c2ccccc21`, the Ki result was “Not Active” in experiment [1] and over 10 µM on Histamine H1 receptor (read-out: Ki).

For the molecule `CN(C)CCCN1C(=O)c2cc(Cl)ccc2N(C)C(=O)c2cc3ccccc3cc21`, the Ki result (in experiment [1]; on Histamine H1 receptor) was “Not Active” throughout.

Consider `CN(C)CCCN1C(=O)c2ccccc2C(=O)N(Cc2ccccc2)c2ccccc21`, for which the Ki in experiment [1] (read-out: Ki) was over 100 µM; on Histamine H1 receptor, “Not Active”.

As to `CN(C)CCN1C(=O)c2ccccc2N(C)C(=O)c2ccccc21`, the Ki result was “Not Active” in experiment [1]; over 10 µM on Histamine H1 receptor (read-out: Ki); over 100 µM in experiment [2]; over 100 µM in experiment [3]; 40.4 µM in experiment [4]; over 100 µM in experiment [5]. At D(2) dopamine receptor, the Ki is 65.3 µM.

Turning to `CN(C)CCCN1C(=O)c2ccccc2/C=C\c2ccccc21`, the inhibition constant Ki is 36.9 µM in experiment [1] (read-out: Ki); 0.43 µM on Histamine H1 receptor (read-out: Ki); 41.6 µM in experiment [2]; over 100 µM in experiment [3]; 23.4 µM in experiment [4]; 17.1 µM in experiment [5]. For the same molecule, the Ki on D(2) dopamine receptor was 9 µM.

In the case of `COc1cc2c(cc1OC)N(CCCN(C)C)C(=O)c1ccccc1N(C)C2=O`, the Ki result (in experiment [1]; on Histamine H1 receptor) was “Not Active” each time.

For the molecule `CN(C)CCN1C(=O)c2ccccc2CCc2ccccc21`, the Ki in experiment [1] (read-out: Ki) turned out to be 12.4 µM; at Histamine H1 receptor (read-out: Ki), 0.29 µM.
